Patent US20120058961A1, “Pharmaceutical Composition for Treating Cancers” (HENKAN PHARMACEUTICAL CO., LTD., priority 2010, published 2012)

Test system: Human prostatic carcinoma PC-3 cells
Test: Apoptosis assay (cell death detection ELISA, nucleosome level) in PC-3 cells
Type: cell-based
Protocol: Human prostatic carcinoma PC-3 cells (ATCC, CRL-1435, USA) were used for apoptosis assay. The apoptosis test was conducted following the method as described by Guseva et al. […] The cell death of each test was detected by ELISA following the method as provided by Holdenrieder et al. (Holdenrieder et al., Quantification of nucleosomes in serum by the cell death detection ELISA^plus. Roche Applied Science Biochemica. 1: 25-27, 2002). The cells were collected after incubation, and then lysed and evaluated for nucleosome levels by ELISA kit (Cell Death Detection ELISA^PLUS Kit, Roche, 1774425). The read absorbance at 405 nm was measured for each test compound or a vehicle and the values of apoptosis % were calculated. […] Assay Reference FasL (3 nM) was added to the control wells (named as Total wells) and the Incubation buffer to the Blank wells. HK-06-[…] at a concentration of 8 μM or 3 μM was added to each well, and the plate was then incubated in Antagonist buffer for 16 hours at 37° C., 5% CO2. The nucleosome level of each well was determined by the cell death detection kit. […] The plate was then incubated in Agonist buffer for 16 hours at 37° C., 5% CO2. The nucleosome level of each well was determined by the cell death detection kit. In the assays for SAHA and HK-06-[…], SAHA at a concentration of 0.1 μM, 1 μM, 10 μM, 100 μM or 300 μM was replaced for the NaB. The HK-06-[…] at a concentration of 4.5 μM was used. Results are expressed as a percentage of the group treated with the test compound as compared to that of the control group.

Row | Structure (SMILES) | means of Apoptosis % (8 uM HK-06-D01 only (FIG. 1B)) | means of Apoptosis % (8 uM HK-06-D01 only as printed (FIG. 1C)) | means of Apoptosis % (8 uM HK-06-D01 only, 16 hours, relative to 3 nM Fas Ligand = 100% (FIG. 1A)) | means of Apoptosis % (0.3 mM NaB only (FIG. 1B)) | means of Apoptosis % (0.3 mM NaB only as printed (FIG. 1C)) | means of Apoptosis % (1 mM NaB only, 16 hours, relative to 3 nM Fas Ligand = 100% (FIG. 1A))
1 | C[C@H](CCC1(O)O[C@H]2C[C@H]3[C@@H]4CC=C5C[C@@H](O[C@@H]6O[C@H](CO)[C@@H](O[C@@H]7O[C@@H](C)[C@H](O[C@@H]8O[C@@H](C)[C@H](O)[C@@H](O)[C@H]8O)[C@@H](O)[C@H]7O)[C@H](O)[C@H]6O[C@@H]6O[C@@H](C)[C@H](O)[C@@H](O)[C@H]6O)CC[C@]5(C)[C@H]4CC[C@]3(C)[C@H]2[C@@H]1C)CO[C@@H]1O[C@H](CO)[C@@H](O)[C@H](O)[C@H]1O (stereo partly drawn) [HK-06-D01, (25R)-26-O-beta-D-glucopyranosyl-22-hydroxy-5-ene-furostan-3beta, 26-diol-3-O-alpha-L-rhamnopyranosyl-(1→4)-alpha-L-rhamnopyranosyl-(1→4)-[alpha-L-rhamnopyranosyl-(1→2)]-beta-D-glucopyranoside] | 51% | 5% | 46.67% | – | – | –
2 | CCCC(=O)[O-].[Na+] [NaB, sodium butyrate] | – | – | – | 4% | 3% | 29.67%
